Converted amounts (≈) assume the structure as drawn.
How the values were obtained:
Assay in all cases: in vitro antibacterial evaluation, MIC by broth dilution
Format in all cases: cell-based
[1] = system: Streptococcus sp.; settings: broth dilution, 18 hours at 35° C.
Method in brief: (§1)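 Broth dilution per NCCLS standard M7-A2 in Muller-Hinton II […], with an inoculum of 5×10^5 CFU/mL and antibiotic spanning 64-0.06 μg/mL. The MIC is the lowest concentration that inhibits growth of the organism.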

[2] = system: Escherichia coli
Method in brief: as §1

[3] = system: Staphylococcus sp.; settings: broth dilution, 18 hours at 35° C.; for MIC Staphylococcus aureus (GC 1131): strain GC 1131
Method in brief: as §1

[4] = system: Enterococcus sp.; settings: broth dilution, 18 hours at 35° C.
Method in brief: as §1

MIC Streptococcus agalactiae (GC 4564) ([1]; Streptococcus agalactiae (GC 4564)): <0.06 µg/mL | MIC Streptococcus pneumoniae (ATCC 6301) ([1]; Streptococcus pneumoniae (ATCC 6301)): <0.06 µg/mL | MIC Streptococcus pneumoniae (GC 1894) ([1]; Streptococcus pneumoniae (GC 1894)): <0.06 µg/mL | MIC Streptococcus pneumoniae (GC 4565) ([1]; Streptococcus pneumoniae (GC 4565)): <0.06 µg/mL | MIC Streptococcus pyogenes (GC 4563) ([1]; Streptococcus pyogenes (GC 4563)): <0.06 µg/mL | MIC Streptococcus pneumoniae (ATCC 6301) ([1]; strain ATCC 6301): <0.06 µg/mL | MIC Streptococcus pneumoniae (GC 1894) ([1]; strain GC 1894): <0.06 µg/mL | MIC Streptococcus pyogenes (GC 4563) ([1]; strain GC 4563): <0.06 µg/mL | MIC Streptococcus agalactiae (GC 4564) ([1]; strain GC 4564): <0.06 µg/mL | MIC Streptococcus pneumoniae (GC 4565) ([1]; strain GC 4565): <0.06 µg/mL | MIC Escherichia coli (ATCC 25922) ([2]; strain ATCC 25922, 18 hours at 35° C.): 32 µg/mL (≈ 22.4 µM) | MIC Escherichia coli (GC 4559) ([2]; strain GC 4559, 18 hours at 35° C.): 32 µg/mL (≈ 22.4 µM) | MIC Staphylococcus aureus (GC 1131) ([3]; inoculum 5×10^5 CFU/mL): 1 µg/mL (≈ 0.7 µM) | MIC Staphylococcus aureus (ATCC 29213) ([3]; strain ATCC 29213): 2 µg/mL (≈ 1.4 µM) | MIC Staphylococcus aureus (GC 1131) [3]: 1 µg/mL (≈ 0.7 µM) | MIC Staphylococcus aureus (GC 3051) ([3]; strain GC 3051): 1 µg/mL (≈ 0.7 µM) | MIC Staphylococcus aureus (GC 3053) ([3]; strain GC 3053): 1 µg/mL (≈ 0.7 µM) | MIC Staphylococcus aureus (GC 4541) ([3]; strain GC 4541): 0.5 µg/mL (≈ 0.35 µM) | MIC Staphylococcus aureus (GC 4542) ([3]; strain GC 4542): 0.5 µg/mL (≈ 0.35 µM) | MIC Staphylococcus aureus-SMITH (GC 4543) ([3]; strain GC 4543): 1 µg/mL (≈ 0.7 µM) | MIC Staphylococcus aureus (GC 4544) ([3]; strain GC 4544): 4 µg/mL (≈ 2.8 µM) | MIC Staphylococcus aureus (GC 4545) ([3]; strain GC 4545): 1 µg/mL (≈ 0.7 µM) | MIC Coagulase Negative Staphylococcus (GC 4547) ([3]; strain GC 4547): 1 µg/mL (≈ 0.7 µM) | MIC Coagulase Negative Staphylococcus (GC 4548) ([3]; strain GC 4548): 0.25 µg/mL (≈ 0.175 µM) | MIC Coagulase Negative Staphylococcus (GC 4549) ([3]; strain GC 4549): 0.12 µg/mL (≈ 0.0839 µM) | MIC Coagulase Negative Staphylococcus (GC 4551) ([3]; strain GC 4551): 0.5 µg/mL (≈ 0.35 µM) | MIC Coagulase Negative Staphylococcus (GC 6257) ([3]; strain GC 6257): 0.25 µg/mL (≈ 0.175 µM) | MIC Staphylococcus aureus-SMITH (GC 4543) ([3]; strain SMITH GC 4543): 1 µg/mL (≈ 0.7 µM) | MIC Enterococcus avium (GC 4558) ([4]; Enterococcus avium (GC 4558)): 4 µg/mL (≈ 2.8 µM) | MIC Enterococcus faecalis (ATCC 29212) ([4]; Enterococcus faecalis (ATCC 29212)): 2 µg/mL (≈ 1.4 µM) | MIC Enterococcus faecalis (GC 2242) ([4]; Enterococcus faecalis (GC 2242)): 2 µg/mL (≈ 1.4 µM) | MIC Enterococcus faecalis (GC 2691) ([4]; Enterococcus faecalis (GC 2691)): 2 µg/mL (≈ 1.4 µM) | MIC Enterococcus faecalis (GC 3059) ([4]; Enterococcus faecalis (GC 3059)): 4 µg/mL (≈ 2.8 µM) | MIC Enterococcus faecalis (GC 4552) ([4]; Enterococcus faecalis (GC 4552)): 2 µg/mL (≈ 1.4 µM) | MIC Enterococcus faecalis (GC 4553) ([4]; Enterococcus faecalis (GC 4553)): 4 µg/mL (≈ 2.8 µM) | MIC Enterococcus faecalis (GC 4554) ([4]; Enterococcus faecalis (GC 4554)): 4 µg/mL (≈ 2.8 µM) | MIC Enterococcus faecalis (GC 6189) ([4]; Enterococcus faecalis (GC 6189)): 2 µg/mL (≈ 1.4 µM) | MIC Enterococcus faecium (GC 2243) ([4]; Enterococcus faecium (GC 2243)): 2 µg/mL (≈ 1.4 µM) | MIC Enterococcus faecium (GC 4556) ([4]; Enterococcus faecium (GC 4556)): 2 µg/mL (≈ 1.4 µM) | MIC Enterococcus faecium (GC 4557) ([4]; Enterococcus faecium (GC 4557)): 2 µg/mL (≈ 1.4 µM) | MIC Enterococcus faecalis (ATCC 29212) ([4]; strain ATCC 29212): 2 µg/mL (≈ 1.4 µM) | MIC Enterococcus faecalis (GC 2242) ([4]; strain GC 2242): 2 µg/mL (≈ 1.4 µM) | MIC Enterococcus faecium (GC 2243) ([4]; strain GC 2243): 2 µg/mL (≈ 1.4 µM) | MIC Enterococcus faecalis (GC 2691) ([4]; strain GC 2691): 2 µg/mL (≈ 1.4 µM) | MIC Enterococcus faecalis (GC 3059) ([4]; strain GC 3059): 4 µg/mL (≈ 2.8 µM) | MIC Enterococcus faecalis (GC 4552) ([4]; strain GC 4552): 2 µg/mL (≈ 1.4 µM) | MIC Enterococcus faecalis (GC 4553) ([4]; strain GC 4553): 4 µg/mL (≈ 2.8 µM) | MIC Enterococcus faecalis (GC 4554) ([4]; strain GC 4554): 4 µg/mL (≈ 2.8 µM) | MIC Enterococcus faecium (GC 4556) ([4]; strain GC 4556): 2 µg/mL (≈ 1.4 µM) | MIC Enterococcus faecium (GC 4557) ([4]; strain GC 4557): 2 µg/mL (≈ 1.4 µM) | MIC Enterococcus avium (GC 4558) ([4]; strain GC 4558): 4 µg/mL (≈ 2.8 µM) | MIC Enterococcus faecalis (GC 6189) ([4]; strain GC 6189): 2 µg/mL (≈ 1.4 µM)
SMILES: CSc1ccc(C2OCC3OC(OC4C(CO)OC(Oc5ccc(CC6NC(=O)C(C(C)c7ccccc7)NC(=O)CNC(=O)C(CO)NC(=O)C(C(O)C7CNC(=N)N7C7OC(CO)C(O)C(O)C7O)NC(=O)C(C(O)C7CNC(=N)N7)NC6=O)cc5)C(O)C4O)C(O)C(O)C3O2)cc1 (centres unmarked) [Example 144]
MIC Staphylococcus haemolyticus (GC 4546) ([3]; strain GC 4546): 1 µg/mL (≈ 0.7 µM)
